Measured values taken from the supplement of paper PMC8671470.

Tests used:
Conditions in all cases: 72 h
BV-173 [1] = test system: BV-173
How it was run: (§1)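 In 384-well plates holding acoustically pre-printed compounds at five tenfold doses from 1 to 10,000 nM, in duplicate, fifteen myeloid leukaemia cell lines were grown in RPMI 1640 for 72 h at 37 °C with 5% CO2. Luminescent ATP viability was scaled between vehicle and a positive control at 10 µM. The IC50 was then taken from log-logistic dose–response fits with four parameters.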

HEL [2] = test system: HEL
How it was run: as §1

HL-60 [3] = test system: HL-60
How it was run: as §1

K-562 [4] = test system: K-562
How it was run: as §1

KCL-22 [5] = test system: KCL-22
How it was run: as §1

KG-1 = test system: KG-1
How it was run: as §1

KU-812 [6] = test system: KU-812
How it was run: as §1

LAMA-84 [7] = test system: LAMA-84
How it was run: as §1

ML-2 [8] = test system: ML-2
How it was run: as §1

MOLM-13 = test system: MOLM-13
How it was run: as §1

MV4-11 = test system: MV4-11
How it was run: as §1

Mono-Mac-6 [9] = test system: Mono-Mac-6
How it was run: as §1

NOMO-1 [10] = test system: NOMO-1
How it was run: as §1

SHI-1 [11] = test system: SHI-1
How it was run: as §1

THP-1 = test system: THP-1
How it was run: as §1

HL-60 [12] = experiment: cell viability (% survival relative to DMSO control); higher = less cytotoxic
How it was run: (§2)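 HL-60 cells in RPMI 1640 with 10% FBS were rescreened against the full library on 384-well plates at five tenfold concentrations, 1–10,000 nM, in duplicate. Each screen was run with DMSO or 100 nM of one of three metabolic inhibitors, for 72 h at 37 °C, 5% CO2. Viability was read by CellTiter-Glo and normalised to DMSO and 10 μM proteasome-inhibitor wells. Where given, area under the curve came from four-parameter log-logistic fits (drc, PharmacoGx).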

BV-173 [13] = experiment: cell viability (% survival relative to DMSO control, bortezomib = 0%); higher = less cytotoxic
How it was run: (§3)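 Percent survival is reported as the mean of duplicate wells. Cells from 10 AML and 5 CML lines were plated in 384-well plates containing compounds at 1, 10, 100, 1000 or 10000 nM and kept for 72 h at 37 °C in 5% CO2. Readout used CellTiter-Glo luminescence, scaled so that vehicle equals 100% and a 10 µM positive control equals 0%.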

HEL [14] = experiment: as above
How it was run: as §3

HL-60 [15] = experiment: as above
How it was run: as §3

K-562 [16] = experiment: as above
How it was run: as §3

KCL-22 [17] = experiment: as above
How it was run: as §3

KU-812 [18] = experiment: as above
How it was run: as §3

LAMA-84 [19] = experiment: as above
How it was run: as §3

ML-2 [20] = experiment: as above
How it was run: as §3

Mono-Mac-6 [21] = experiment: as above
How it was run: as §3

NOMO-1 [22] = experiment: as above
How it was run: as §3

SHI-1 [23] = experiment: as above
How it was run: as §3

HL-60 [24] = experiment: area under dose-response curve (viability, 1 nM-10 uM) (fraction (0-1)); higher = more sensitive
How it was run: as §2

CN(C)C(=O)[C@H](O)[C@H](Cc1ccccc1)NC(=O)c1cc2cc(Cl)ccc2[nH]1
Conditions | IC50 (cell viability) [µM]
BV-173 [1] | > 10
HEL [2] | > 10
HL-60 [3] | > 10
K-562 [4] | > 10
KCL-22 [5] | > 10
KG-1 | > 10
KU-812 [6] | > 10
LAMA-84 [7] | > 10
ML-2 [8] | > 10
MOLM-13 | > 10
MV4-11 | > 10
Mono-Mac-6 [9] | > 10
NOMO-1 [10] | > 10
SHI-1 [11] | > 10
THP-1 | > 10

cell viability [%], HL-60 [12]
Conditions | 0.001 µM | 0.01 µM | 0.1 µM | 1 µM | 10 µM
co-treatment: AZD3965 100 nM | 105 | 101 | 98.4 | 101 | 100.2
co-treatment: DMSO vehicle | 101 | 102.3 | 95.7 | 100 | 110
co-treatment: GSK2194069 100 nM | 102 | 110 | 101 | 100 | 99.4
co-treatment: pictilisib 100 nM | 97.4 | 107 | 93.8 | 96 | 97.3

Conditions | area under dose-response curve, co-treatment: AZD3965 100 nM | area under dose-response curve, co-treatment: DMSO vehicle | area under dose-response curve, co-treatment: GSK2194069 100 nM | area under dose-response curve, co-treatment: pictilisib 100 nM | cell viability, 1 nM [%] | cell viability, 10 nM [%] | cell viability, 100 nM [%] | cell viability, 1000 nM [%] | cell viability, 10000 nM [%]
BV-173 [13] | – | – | – | – | 88.3 | 110 | 98.4 | 105 | 73.2
HEL [14] | – | – | – | – | 98.5 | 102 | 99.1 | 112 | 88.1
HL-60 [15] | – | – | – | – | 85.4 | 100 | 108 | 174 | 89.1
HL-60 [24] | < 0.0301 | < 0.0301 | < 0.0301 | < 0.0301 | – | – | – | – | –
K-562 [16] | – | – | – | – | 79 | 84.3 | 94.3 | 105 | 79
KCL-22 [17] | – | – | – | – | 107 | 98.3 | 108 | 105 | 91.6
KU-812 [18] | – | – | – | – | 98.1 | 96 | 102 | 104 | 62.6
LAMA-84 [19] | – | – | – | – | 94.6 | 97.6 | 114 | 107 | 83.3
ML-2 [20] | – | – | – | – | 110 | 100 | 106 | 120 | 85
Mono-Mac-6 [21] | – | – | – | – | 94.8 | 97.8 | 103 | 96.5 | 83.8
NOMO-1 [22] | – | – | – | – | 101 | 102 | 106 | 106 | 95.4
SHI-1 [23] | – | – | – | – | 106 | 97.8 | 115 | 114 | 99.6
